Measured values reported in PubChem BioAssay AID256 (DTP/NCI, 2004).
Inconclusive results and toxic doses are left out. How the source made its calls: active means survival T/C of 150% or more; inactive means T/C below 125% in these data.

Tested on: CD2F1 mice, L1210 leukemia ip, survival T/C
Assay: NCI In Vivo Anticancer Drug Screen. Data for tumor model L1210 Leukemia (intraperitoneal) in CD2F1 (CDF1) mice
Conditions: higher = longer survival
Procedure, shortened: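 In this screen, transplantable tumors were grown in mice given either the compound or its vehicle. Results were expressed as the treated measurement relative to the control measurement.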

[1] = endpoint: mean survival time, dose: 50.0 mg/kg/injection, schedule: Q01DX009 (ip), vehicle: saline with Tween-80
[2] = endpoint: mean survival time, dose: 100.0 mg/kg/injection, schedule: Q01DX009 (ip), vehicle: saline with Tween-80
[3] = endpoint: mean survival time, dose: 200.0 mg/kg/injection, schedule: Q01DX009 (ip), vehicle: saline with Tween-80
[4] = endpoint: mean survival time, dose: 100.0 mg/kg/injection, schedule: Q01DX001 (ip), vehicle: saline
[5] = endpoint: mean survival time, dose: 200.0 mg/kg/injection, schedule: Q01DX001 (ip), vehicle: saline
[6] = endpoint: mean survival time, dose: 400.0 mg/kg/injection, schedule: Q01DX001 (ip), vehicle: saline
[7] = endpoint: mean survival time, dose: 100.0 mg/kg/injection, schedule: Q04DX002 (ip), vehicle: saline with Tween-80
[8] = endpoint: mean survival time, dose: 200.0 mg/kg/injection, schedule: Q04DX002 (ip), vehicle: saline with Tween-80
[9] = endpoint: mean survival time, dose: 100.0 mg/kg/injection, schedule: Q01DX001 (ip), vehicle: saline with Tween-80
[10] = endpoint: mean survival time, dose: 200.0 mg/kg/injection, schedule: Q01DX001 (ip), vehicle: saline with Tween-80
[11] = endpoint: mean survival time, dose: 400.0 mg/kg/injection, schedule: Q01DX001 (ip), vehicle: saline with Tween-80
[12] = endpoint: mean survival time, dose: 100.0 mg/kg/injection, schedule: Q04DX003 (ip), vehicle: saline with Tween-80
[13] = endpoint: mean survival time, dose: 200.0 mg/kg/injection, schedule: Q04DX003 (ip), vehicle: saline with Tween-80
[14] = endpoint: mean survival time, dose: 400.0 mg/kg/injection, schedule: Q04DX003 (ip), vehicle: saline with Tween-80
[15] = endpoint: mean survival time, dose: 25.0 mg/kg/injection, schedule: Q04DX003 (ip), vehicle: saline with Tween-80
[16] = endpoint: mean survival time, dose: 50.0 mg/kg/injection, schedule: Q04DX003 (ip), vehicle: saline with Tween-80

Measured: T/C

Cc1nc(C(Cl)C2OC(CO)C(O)C2O)cc(=O)[nH]1 (stereo not given)
inactive: endpoint: median survival time, dose: 18.25 mg/kg/injection, schedule: Q01DX005 (ip), vehicle: saline 118 % of control | endpoint: median survival time, dose: 36.5 mg/kg/injection, schedule: Q01DX005 (ip), vehicle: saline 100 % of control | endpoint: median survival time, dose: 73.0 mg/kg/injection, schedule: Q01DX005 (ip), vehicle: saline 102 % of control | endpoint: median survival time, dose: 146.0 mg/kg/injection, schedule: Q01DX005 (ip), vehicle: saline 100 % of control

Cc1ncc([N+](=O)[O-])n1CCSC(N)=O
inactive: endpoint: mean survival time, dose: 12.5 mg/kg/injection, schedule: Q01DX009 (ip), vehicle: saline with Tween-80 103 % of control | endpoint: mean survival time, dose: 25.0 mg/kg/injection, schedule: Q01DX009 (ip), vehicle: saline with Tween-80 96 % of control | [1] 102 % of control | [2] 100 % of control | [3] 100 % of control | endpoint: mean survival time, dose: 400.0 mg/kg/injection, schedule: Q01DX009 (ip), vehicle: saline with Tween-80 100 % of control

C=CCSc1ncnc2c1cnn2C1OC(CO)C(O)C1O (stereo not given)
inactive: endpoint: mean survival time, dose: 12.5 mg/kg/injection, schedule: Q01DX005 (ip), vehicle: water 102 % of control | endpoint: mean survival time, dose: 25.0 mg/kg/injection, schedule: Q01DX005 (ip), vehicle: water 98 % of control | endpoint: mean survival time, dose: 50.0 mg/kg/injection, schedule: Q01DX005 (ip), vehicle: water 98 % of control | endpoint: mean survival time, dose: 100.0 mg/kg/injection, schedule: Q01DX005 (ip), vehicle: water 102 % of control

COc1ccc(-c2c(C(=O)O)cc(O)c3cc(OC)c(OC)cc23)cc1OC
inactive: [4] 97 % of control | [5] 97 % of control | [6] 92 % of control

O=C1C=CC(=O)N1c1ccc(Cl)cc1
inactive: endpoint: mean survival time, dose: 6.25 mg/kg/injection, schedule: Q01DX001 (ip), vehicle: Klucel (hydroxypropylcellulose) (HPC) 100 % of control | endpoint: mean survival time, dose: 6.25 mg/kg/injection, schedule: Q01DX009 (ip), vehicle: Klucel (hydroxypropylcellulose) (HPC) 110 % of control | endpoint: mean survival time, dose: 6.25 mg/kg/injection, schedule: Q04DX003 (ip), vehicle: Klucel (hydroxypropylcellulose) (HPC) 107 % of control | endpoint: mean survival time, dose: 12.5 mg/kg/injection, schedule: Q01DX001 (ip), vehicle: Klucel (hydroxypropylcellulose) (HPC) 103 % of control | endpoint: mean survival time, dose: 12.5 mg/kg/injection, schedule: Q01DX009 (ip), vehicle: Klucel (hydroxypropylcellulose) (HPC) 101 % of control | endpoint: mean survival time, dose: 12.5 mg/kg/injection, schedule: Q04DX003 (ip), vehicle: Klucel (hydroxypropylcellulose) (HPC) 104 % of control | endpoint: mean survival time, dose: 25.0 mg/kg/injection, schedule: Q01DX009 (ip), vehicle: Klucel (hydroxypropylcellulose) (HPC) 96 % of control

O=C(OCC#CCOC(=O)c1c(Cl)ccc(Cl)c1Cl)c1c(Cl)ccc(Cl)c1Cl
inactive: [7] 89 % of control | [8] 89 % of control

O=C1C(c2ccccc2)=C(c2ccccc2)C(c2ccccc2)=C1c1ccccc1
inactive: [1] 95 % of control | [9] 97 % of control | [2] 91 % of control | [10] 87 % of control | [3] 88 % of control | [11] 91 % of control

CCCN(CCC)S(=O)(=O)c1ccc(NC(=O)OC2CCCC2)cc1
inactive: [4] 104 % of control | [5] 106 % of control | [6] 105 % of control

CNC(=O)NC1C(O)C(OC)OC2COC(c3ccccc3)OC21 (stereo not given)
inactive: [12] 97 % of control | [13] 97 % of control | [14] 95 % of control

O=C(COC(=O)C1CCCCCCC1)c1ccc(Br)cc1
inactive: [9] 100 % of control | [12] 94 % of control | [10] 107 % of control | [13] 96 % of control | [11] 97 % of control | [14] 97 % of control

O=C1OC(C(=O)O)Cc2ccccc21 (stereo not given)
inactive: endpoint: mean survival time, dose: 50.0 mg/kg/injection, schedule: Q01DX001 (ip), vehicle: saline 102 % of control | [4] 100 % of control | [5] 110 % of control | [6] 103 % of control

[Cl][Pt+2][Cl].[NH-]c1cccc(F)c1.[NH-]c1cccc(F)c1
inactive: endpoint: mean survival time, dose: 12.5 mg/kg/injection, schedule: Q04DX003 (ip), vehicle: saline with Tween-80 97 % of control | [15] 114 % of control | [16] 102 % of control

CC(C)[C@](O)(C(=O)OCC1=CCN2CC[C@@H](O)[C@@H]12)[C@H](C)O
inactive: endpoint: median survival time, dose: 12.5 mg/kg/injection, schedule: Q01DX009 (ip), vehicle: water 103 % of control | endpoint: median survival time, dose: 25.0 mg/kg/injection, schedule: Q01DX009 (ip), vehicle: water 100 % of control | endpoint: median survival time, dose: 50.0 mg/kg/injection, schedule: Q01DX009 (ip), vehicle: water 98 % of control | endpoint: median survival time, dose: 100.0 mg/kg/injection, schedule: Q01DX009 (ip), vehicle: water 122 % of control | endpoint: median survival time, dose: 200.0 mg/kg/injection, schedule: Q01DX009 (ip), vehicle: water 112 % of control | endpoint: median survival time, dose: 400.0 mg/kg/injection, schedule: Q01DX009 (ip), vehicle: water 112 % of control

Cc1ccc(C(=O)N/N=C/C(=O)O)cc1
inactive: endpoint: mean survival time, dose: 25.0 mg/kg/injection, schedule: Q01DX009 (ip), vehicle: water 102 % of control | endpoint: mean survival time, dose: 50.0 mg/kg/injection, schedule: Q01DX009 (ip), vehicle: water 95 % of control | endpoint: mean survival time, dose: 100.0 mg/kg/injection, schedule: Q01DX009 (ip), vehicle: water 102 % of control | endpoint: mean survival time, dose: 200.0 mg/kg/injection, schedule: Q01DX009 (ip), vehicle: water 95 % of control

CC(Br)C(=O)NC(CC(N)=O)C(=O)O (stereo not given)
inactive: [12] 102 % of control | [13] 98 % of control

O=C1C=CC(=O)c2c(O)ccc(O)c21
inactive: endpoint: mean survival time, dose: 1.0 mg/kg/injection, schedule: Q04DX003 (ip), vehicle: saline with Tween-80 91 % of control | endpoint: mean survival time, dose: 2.0 mg/kg/injection, schedule: Q04DX003 (ip), vehicle: saline with Tween-80 104 % of control | endpoint: mean survival time, dose: 4.0 mg/kg/injection, schedule: Q04DX003 (ip), vehicle: saline with Tween-80 104 % of control

O=[N+]([O-])C(CO)(CO)CO
inactive: endpoint: mean survival time, dose: 100.0 mg/kg/injection, schedule: Q01DX009 (ip), vehicle: saline 98 % of control | endpoint: mean survival time, dose: 200.0 mg/kg/injection, schedule: Q01DX009 (ip), vehicle: saline 96 % of control | endpoint: mean survival time, dose: 400.0 mg/kg/injection, schedule: Q01DX009 (ip), vehicle: saline 104 % of control

CCOC(=O)c1cc(C)nc2c(Cl)cc(Cl)cc12
inactive: [2] 87 % of control | [12] 87 % of control | [3] 87 % of control | [13] 88 % of control | [14] 86 % of control

COc1ccc(/C=N\N2C(=O)/C(=C\c3ccc(OC)cc3)SC2=S)cc1
inactive: [12] 97 % of control | [13] 93 % of control | [14] 89 % of control

CC(=O)Nc1ccc(OC(C)=O)cc1
inactive: [15] 97 % of control | [16] 97 % of control | [12] 101 % of control

COc1cc2c(cc1O)CCCC=C2C1CCCCc2cc(O)c(OC)cc21 (stereo not given)
inactive: [1] 96 % of control | [2] 103 % of control | [3] 96 % of control

COc1ccccc1C=NC(C)(C)CO
inactive: endpoint: mean survival time, dose: 75.0 mg/kg/injection, schedule: Q01DX001 (ip), vehicle: other 102 % of control | endpoint: mean survival time, dose: 150.0 mg/kg/injection, schedule: Q01DX001 (ip), vehicle: other 97 % of control | endpoint: mean survival time, dose: 300.0 mg/kg/injection, schedule: Q01DX001 (ip), vehicle: other 97 % of control

COc1ccccc1NC(=O)Oc1ccc(Cl)cc1Cl
inactive: [7] 103 % of control | [8] 95 % of control

BrC1=C(c2ccccc2)SC(Br)=C(c2ccccc2)S1
inactive: [9] 94 % of control | [10] 87 % of control | [11] 91 % of control

CN1CCC(c2ccccc2)c2ccccc21 (stereo not given)
inactive: endpoint: mean survival time, dose: 50.0 mg/kg/injection, schedule: Q04DX003 (ip), vehicle: other 97 % of control | endpoint: mean survival time, dose: 100.0 mg/kg/injection, schedule: Q04DX003 (ip), vehicle: other 100 % of control | endpoint: mean survival time, dose: 200.0 mg/kg/injection, schedule: Q04DX003 (ip), vehicle: other 100 % of control | endpoint: mean survival time, dose: 400.0 mg/kg/injection, schedule: Q04DX003 (ip), vehicle: other 100 % of control

O=c1[nH]c(=O)n(C2OC(CO)C(O)C2O)nc1SCc1ccccc1 (stereo not given)
inactive: endpoint: mean survival time, dose: 12.5 mg/kg/injection, schedule: Q01DX005 (ip), vehicle: distilled water + Tween-80 100 % of control | endpoint: mean survival time, dose: 25.0 mg/kg/injection, schedule: Q01DX005 (ip), vehicle: distilled water + Tween-80 97 % of control | endpoint: mean survival time, dose: 50.0 mg/kg/injection, schedule: Q01DX005 (ip), vehicle: distilled water + Tween-80 101 % of control | endpoint: mean survival time, dose: 100.0 mg/kg/injection, schedule: Q01DX005 (ip), vehicle: distilled water + Tween-80 97 % of control | endpoint: mean survival time, dose: 200.0 mg/kg/injection, schedule: Q01DX005 (ip), vehicle: distilled water + Tween-80 97 % of control
